Measured values taken from patent US20070010671A1, “Novel quinazoline derivatives and methods of treatment related to the use thereof” (priority 2003, published 2007).
pIC50: −log10 of the molar value.

biological target: MCH receptor (Homo sapiens, UniProt Q99705); test: High throughput functional screening FLIPR/FDSS6000: inhibition of MCH-evoked intracellular Ca2+ changes; format: cell-based; conditions: class by percent of control at 10^-7 M or IC50
Method in brief: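 Antagonism was measured as inhibition of calcium responses to 50 nM MCH, monitored 290 s at ex 488/em 530 nm on FLIPR or FDSS6000. Beforehand, cells bearing a constitutively active MCH receptor received Fluo4-AM (4 μM, 1 h, 37 °C) with probenecid, and test compound for 3 min.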

SMILES | class
Cc1ccccc1CNC(=O)NC[C@H]1CC[C@@H](Nc2nc(N(C)C)c3ccccc3n2)CC1 [compound 510, N-[(cis-4-{[4-(dimethylamino)quinazolin-2-yl]amino}cyclohexyl)methyl]-N′-(2-methylbenzyl)urea] | 2 (Class 2: The value of percent of control at 10^−7 M was from 40% to 60% or the value of IC50 was from 50 nM to 200 nM.)
CN(C)c1nc(N[C@H]2CC[C@@H](CNC(=S)Nc3ccc(NC(=O)OC(C)(C)C)cc3)CC2)nc2ccccc12 [compound 664] | 3 (Class 3: The value of percent of control at 10^−7 M was more than 60% or the value of IC50 was more than 200 nM.)
CSc1ccc(NC(=S)NC[C@H]2CC[C@@H](Nc3nc(N(C)C)c4ccccc4n3)CC2)cc1 [compound 606] | 3 (Class 3: The value of percent of control at 10^−7 M was more than 60% or the value of IC50 was more than 200 nM.)
CC(NC(=O)NC[C@H]1CC[C@@H](Nc2nc(N(C)C)c3ccccc3n2)CC1)c1ccc(Br)cc1 (relative stereo) [compound 575] | 3 (Class 3: The value of percent of control at 10^−7 M was more than 60% or the value of IC50 was more than 200 nM.)
CN(C)c1nc(N[C@H]2CC[C@@H](NC(=O)Nc3ccsc3)CC2)nc2ccccc12 [compound 344] | 3 (Class 3: The value of percent of control at 10^−7 M was more than 60% or the value of IC50 was more than 200 nM.)
CN(C)c1nc(N[C@H]2CC[C@@H](CNC(=O)Nc3ccc(-c4ccccc4)s3)CC2)nc2ccccc12 [compound 768] | 3 (Class 3: The value of percent of control at 10^−7 M was more than 60% or the value of IC50 was more than 200 nM.)
Cc1cc(Cl)ccc1NC(=O)NC[C@H]1CC[C@@H](Nc2nc(N(C)C)c3ccccc3n2)CC1 [compound 546] | 2 (Class 2: The value of percent of control at 10^−7 M was from 40% to 60% or the value of IC50 was from 50 nM to 200 nM.)
CN(C)c1nc(N[C@H]2CC[C@@H](CNC(=O)Nc3ccc(-c4ccccc4)cc3)CC2)nc2ccccc12 [compound 562] | 3 (Class 3: The value of percent of control at 10^−7 M was more than 60% or the value of IC50 was more than 200 nM.)
CN(C)c1nc(N[C@H]2CC[C@@H](CNC(=O)Nc3ccccc3[N+](=O)[O-])CC2)nc2ccccc12 [compound 512, N-[(cis-4-{[4-(dimethylamino)quinazolin-2-yl]amino}cyclohexyl)methyl]-N′-(2-nitrophenyl)urea] | 2 (Class 2: The value of percent of control at 10^−7 M was from 40% to 60% or the value of IC50 was from 50 nM to 200 nM.)
CN(C)c1nc(N[C@H]2CC[C@@H](NC(=S)Nc3cc(Cl)ccc3F)CC2)nc2ccccc12 [compound 376] | 3 (Class 3: The value of percent of control at 10^−7 M was more than 60% or the value of IC50 was more than 200 nM.)
COc1cc(OC)c(NC(=S)NC[C@H]2CC[C@@H](Nc3nc(N(C)C)c4ccccc4n3)CC2)cc1Cl [compound 746] | 3 (Class 3: The value of percent of control at 10^−7 M was more than 60% or the value of IC50 was more than 200 nM.)
CN(C)c1nc(N[C@H]2CC[C@@H](CNC(=S)Nc3ccccc3F)CC2)nc2ccccc12 [compound 642] | 3 (Class 3: The value of percent of control at 10^−7 M was more than 60% or the value of IC50 was more than 200 nM.)
CN(C)c1nc(N[C@H]2CC[C@@H](NC(=S)Nc3ccc(/N=N/c4ccccc4)cc3)CC2)nc2ccccc12 [compound 394] | 3 (Class 3: The value of percent of control at 10^−7 M was more than 60% or the value of IC50 was more than 200 nM.)
CN(C)c1nc(N[C@H]2CC[C@@H](CNC(=O)NCc3ccccc3Cl)CC2)nc2ccccc12 [compound 490, N-(2-chlorobenzyl)-N′-[(cis-4-{[4-(dimethylamino)quinazolin-2-yl]amino}cyclohexyl)methyl]urea] | 1 (Class 1: The value of percent of control at 10^−7 M was less than 40% or the value of IC50 was less than 50 nM.)
Cc1ccccc1NC(=O)NC[C@H]1CC[C@@H](Nc2nc(N(C)C)c3ccccc3n2)CC1 [compound 460, N-[(cis-4-{[4-(dimethylamino)quinazolin-2-yl]amino}cyclohexyl)methyl]-N′-(2-methylphenyl)urea] | 1 (Class 1: The value of percent of control at 10^−7 M was less than 40% or the value of IC50 was less than 50 nM.)
CN(C)c1nc(N[C@H]2CC[C@@H](CNC(=S)Nc3ccccc3C(F)(F)F)CC2)nc2ccccc12 [compound 632] | 3 (Class 3: The value of percent of control at 10^−7 M was more than 60% or the value of IC50 was more than 200 nM.)
CN(C)c1nc(N[C@H]2CC[C@@H](NC(=S)Nc3cccc(SC(F)(F)F)c3)CC2)nc2ccccc12 [compound 222] | 3 (Class 3: The value of percent of control at 10^−7 M was more than 60% or the value of IC50 was more than 200 nM.)
Cc1ccc(NC(=S)N[C@H]2CC[C@@H](Nc3nc(N(C)C)c4ccccc4n3)CC2)cc1C [compound 369] | 3 (Class 3: The value of percent of control at 10^−7 M was more than 60% or the value of IC50 was more than 200 nM.)
COc1ccc(-c2ccccc2)cc1NC(=S)NC[C@H]1CC[C@@H](Nc2nc(N(C)C)c3ccccc3n2)CC1 [compound 603] | 3 (Class 3: The value of percent of control at 10^−7 M was more than 60% or the value of IC50 was more than 200 nM.)
CSc1ccccc1NC(=S)NC[C@H]1CC[C@@H](Nc2nc(N(C)C)c3ccccc3n2)CC1 [compound 630] | 3 (Class 3: The value of percent of control at 10^−7 M was more than 60% or the value of IC50 was more than 200 nM.)
Cc1cc([N+](=O)[O-])ccc1NC(=S)N[C@H]1CC[C@@H](Nc2nc(N(C)C)c3ccccc3n2)CC1 [compound 302, N-(cis-4-{[4-(dimethylamino)quinazolin-2-yl]amino}cyclohexyl)-N′-(2-methyl-4-nitrophenyl)thiourea] | 1 (Class 1: The value of percent of control at 10^−7 M was less than 40% or the value of IC50 was less than 50 nM.)
CN(C)c1nc(N[C@H]2CC[C@@H](CNC(=O)NC(c3ccccc3)c3ccccc3)CC2)nc2ccccc12 [compound 573, N-[(cis-4-{[4-(dimethylamino)quinazolin-2-yl]amino}cyclohexyl)methyl]-N′-(diphenylmethyl)urea] | 1 (Class 1: The value of percent of control at 10^−7 M was less than 40% or the value of IC50 was less than 50 nM.)

same assay, conditions: class by percent of control at 10^-7 M or by IC50; read-out: class

pIC50 | SMILES
> 7.30 | CN(C)c1nc(N[C@H]2CC[C@@H](NC(=O)Nc3ccccc3[N+](=O)[O-])CC2)nc2ccccc12 [compound 113, N-(cis-4-{[4-(dimethylamino)quinazolin-2-yl]amino}cyclohexyl)-N′-(2-nitrophenyl)urea]
< 6.70 | CN(C)c1nc(N[C@H]2CC[C@@H](NC(=O)Nc3cc([N+](=O)[O-])ccc3F)CC2)nc2ccccc12 [compound 99]
6.70 to 7.30 | CN(C)c1nc(N[C@H]2CC[C@@H](NC(=O)NC3CCCCC3)CC2)nc2ccccc12 [compound 16, N-cyclohexyl-N′-(cis-4-{[4-(dimethylamino)quinazolin-2-yl]amino}cyclohexyl)urea]
> 7.30 | COC(=O)[C@H](CCSC)NC(=O)N[C@H]1CC[C@@H](Nc2nc(N(C)C)c3ccccc3n2)CC1 (relative stereo) [compound 41, methyl N-{[(cis-4-{[4-(dimethylamino)quinazolin-2-yl]amino}cyclohexyl)amino]carbonyl}methioninate]
< 6.70 | CN(C)c1nc(N[C@H]2CC[C@@H](CNC(=S)Nc3cccnc3)CC2)nc2ccccc12 [compound 809]
< 6.70 | CN(C)c1nc(N[C@H]2CC[C@@H](NC(=S)Nc3cc(Cl)ccc3Cl)CC2)nc2ccccc12 [compound 168]
< 6.70 | COC(=O)c1ccc(NC(=O)N[C@H]2CC[C@@H](Nc3nc(N(C)C)c4ccccc4n3)CC2)cc1 [compound 845]
< 6.70 | CCN(CC)c1ccc(NC(=S)NC[C@H]2CC[C@@H](Nc3nc(N(C)C)c4ccccc4n3)CC2)cc1 [compound 811]
> 7.30 | Cc1cc([N+](=O)[O-])ccc1NC(=O)N[C@H]1CC[C@@H](Nc2nc(N(C)C)c3ccccc3n2)CC1 [compound 108, N-(cis-4-{[4-(dimethylamino)quinazolin-2-yl]amino}cyclohexyl)-N′-(2-methyl-4-nitrophenyl)urea]
6.70 to 7.30 | CN(C)c1nc(N[C@H]2CC[C@@H](NC(=O)NCCc3ccccc3)CC2)nc2ccccc12 [compound 842, N-(cis-4-{[4-(dimethylamino)quinazolin-2-yl]amino}cyclonexyl)-N′-(2-phenylethyl)urea]

same assay, conditions: class by percent of control at 10^−7 M or by IC50; read-out: class

pIC50 | SMILES
> 7.30 | CN(C)c1nc(N[C@H]2CC[C@@H](C(=O)NCc3ccc(S(C)(=O)=O)cc3)CC2)nc2ccccc12 [Example 1195, cis-4-{[4-(dimethylamino)quinazolin-2-yl]amino}-N-[4-(methylsulfonyl)benzyl]cyclohexanecarboxamide]
> 7.30 | CN(C)c1nc(N[C@H]2CC[C@@H](NC(=O)c3cccnc3Oc3cccc(OC(F)(F)F)c3)CC2)nc2ccccc12 [Example 1036, N-(cis-4-{[4-(dimethylamino)quinazolin-2-yl]amino}cyclohexyl)-2-[3-(trifluoromethoxy)phenoxy]nicotinamide]
> 7.30 | CN(C)c1nc(N[C@H]2CC[C@@H](NC(=O)c3cccc(C(F)(F)F)c3)CC2)nc2cc(F)c(F)cc12 [Example 1210, N-(cis-4-{[4-(dimethylamino)-6,7-difluoroquinazolin-2-yl]amino}cyclohexyl)-3-(trifluoromethyl)benzamide]
< 6.70 | CN(C)c1nc(N[C@H]2CC[C@@H](NC(=O)c3ccc(Oc4ccc(F)cc4)nc3)CC2)nc2ccccc12 [Example 1059, N-(cis-4-{[4-(dimethylamino)quinazolin-2-yl]amino}cyclohexyl)-6-(4-fluorophenoxy)nicotinamide]
